Test system: AMI rats
Experiment: In vivo effects of LNCs on infarct size
Parameters: species or system Sprague-Dawley rats
Settings: intravenous injection, n=8, AMI group 58%

SMILES: Nc1ncnc2c1ncn2[C@@H]1O[C@H](CO)[C@@H](O)[C@H]1O [free Ade, Adenosine]
- infarct size (percentage of whole size of the left ventricle): 47%

— PMC6001834 (Drug Design, Development and Therapy, 2018)
